The text below walks through data of PubChem BioAssay AID179 (DTP/NCI, 2004).

Active and inactive are the calls of the source.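 How the source made its calls: active means compounds giving half or more protection of infected cells from virus-caused growth loss, again on retest; inactive means the rest.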

The assay relates to CEM cells HIV-1 protection, formazan growth assay. Nature of the assay: NCI AIDS Antiviral Assay. Particulars: for IC50: measured here: growth of uninfected CEM cells. The gist of the method:
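Screen of anti-HIV-1 activity in human CEM cells using a formazan-based growth measurement at five drug concentrations. Hits with 50% or greater protection were repeated, and confirmation required reproducible complete protection.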

By EC50 is commonly meant the concentration that produces a half-maximal response. Usually IC50 stands for the point on the concentration scale where inhibition reaches its midpoint. Lower therefore signals greater potency. Regarding `CCC12CCCN(Cc3ccccc3)C1c1c([nH]c3ccccc13)C(C(=O)OC)C2` (centres undefined), the EC50 was greater than 30.9 µM and the IC50 is greater than 30.9 µM.

As to `COc1cccc(/C=N/[N-]C(N)=O)c1[O-].[Co+2].[OH3+]`, the EC50 was greater than 126 µM and the IC50 is 61.7 µM.

For `NC1=NC(=O)/C(=C/c2ccccc2[N+](=O)[O-])C(N)=N1`, the outcome was inactive.

For `CCOC(=O)C(=CNc1ccc(N(C2=NCC(C)S2)c2ccc(F)c(Cl)c2)cc1)C(=O)OCC` (centres undefined), the outcome was inactive.

With `COc1ccc2c(c1)OC[C@H]1c3cc(O)c(O)cc3O[C@@H]21`, the result was inactive.

As to `O=C(NC1=C(Cl)C(=O)c2ccccc2C1=O)C(=O)C(C(=O)c1ccc2ccccc2c1)C1OC(=O)c2ccccc21` (centres undefined), the EC50 was greater than 45.7 µM and the IC50 came out at 11.5 µM.

As for `c1ccc2c(c1)cnc1c3ccccc3nn21`, the EC50 was greater than 17.4 µM and the 50% inhibitory concentration (IC50) was greater than 17.4 µM.

On to `CCCCNC(=O)OCCN=C1c2ccccc2C(Br)C(Br)c2ccccc21` (centres undefined), for which the EC50 was greater than 200 µM and the 50% inhibitory concentration (IC50) worked out at 26.9 µM.

For the compound `COC(=O)C(C(=O)C(=O)Nc1ccccc1OC)c1csc(-n2nc(-c3ccccc3)cc2-c2ccccc2)n1` (centres undefined), the EC50 was greater than 115 µM and the IC50 amounted to 97.7 µM.

With `Cc1cc(Cc2cc(C)cc(S(=O)(=O)O)c2O)c(O)c(S(=O)(=O)O)c1`, the EC50 was 209 µM and the half-inhibitory concentration (IC50) worked out at 646 µM.

Take `COc1ccc(Cc2nnc(C)c3c(C)[nH]nc23)cc1`: the EC50 was greater than 525 µM and the half-inhibitory concentration (IC50) amounted to 33.9 µM.

Consider `c1ccc(C2SCC3COCN32)cc1` (centres undefined), for which the EC50 is greater than 240 µM and the half-maximal inhibitory concentration (IC50) is greater than 240 µM.

For the compound `CCOC(=O)CN1CCC2CC1c1c([nH]c3ccccc13)C21OCCO1` (centres undefined), the EC50 is greater than 200 µM and the IC50 was greater than 200 µM.

`C[n+]1ccccc1/C=N/O`: the EC50 was greater than 200 µM and the IC50 was greater than 200 µM.

Turning to `O=C1CC(c2ccc([N+](=O)[O-])cc2)=Nc2ccccc2N1`, the EC50 is greater than 200 µM and the 50% inhibitory concentration (IC50) is greater than 200 µM.

`Cc1ccc(Oc2ccc([N+](=O)[O-])cc2[N+](=O)[O-])c(C)c1`: the outcome was inactive.

For `OC12C3C4CC5C(C4[C@@H]1Br)C2[C@@](O)(c1c(F)c(F)c(F)c(F)c1F)C53` (some centres undefined), the EC50 was greater than 200 µM and the IC50 came out at 69.2 µM.

Turning to `O=C([O-])c1n[nH]c([O-])c1N=Nc1ccc(/C=C/c2ccc(N=Nc3c(C(=O)[O-])n[nH]c3[O-])cc2S(=O)(=O)[O-])c(S(=O)(=O)[O-])c1.[Cu+2].[Cu+2].[Na+]`, the EC50 was greater than 50.1 µM and the IC50 is greater than 50.1 µM.

In the case of `CC1CC(C)(C)N=C(C(C)CC(C)(C)C)O1` (centres undefined), the EC50 was greater than 200 µM and the concentration for half-maximal inhibition (IC50) came to 60.3 µM.

In the case of `CCOC(=O)C(Cc1c2ccccc2cc2ccccc12)(NC(C)=O)C(=O)OCC`, the EC50 was greater than 200 µM and the IC50 is greater than 200 µM.

As for `[N-]=[N+]=N/C1=C/CCCCC(=O)C1`, the result was inactive.

For the compound `CC(C)(C)Sc1nnc(SC(C)(C)C)c2c(=O)[nH]nc(SC(C)(C)C)c12`, the result was inactive.

Regarding `CC1=Nc2ccccc2NC2(C1)C(C1COC(C)(C)O1)OC1OC(C)(C)OC12` (centres undefined), the outcome was inactive.
